Measured values published in patent US12318448B2, “Use of TLR agonist and anti-CD47 agent to enhance phagocytosis of cancer cells” (The Board of Trustees of the Leland Stanford Junior …, priority 2015, dated 2025).

Assays:
[1] = tested on: SW620 cells; assay: FACS-based phagocytosis assay, mouse BMDMs with SW620 target cells; type: cell-based, human; conditions: for phagocytosis of tumor cells after treatment of macrophages with TLR agonist: SW620 (PBS-treated, Hu5F9-G4-treated or CD47KO), γc-/- or NSG mice, FIG. 6A-6B
Procedure: We performed phagocytosis assays by co-culturing mouse bone marrow-derived macrophages (BMDMs) and target human cancer cells to examine the efficacy of PrCR under different conditions. To induce phagocytosis, we blocked CD47 on a human colon cancer cell line (SW620) by either treating tumor cells with CD47 blocking antibodies or directly knocking it out.
(§1) Phagocytosis assay. FACS-based phagocytosis assays were performed to evaluate phagocytic abilities of macrophages. Macrophages were harvested after 6-8 days of differentiation and divided into FACS tubes or low-attachment 96-well plates, with 1-5×10^4 cells per well/tube. Target cells were added and mixed with macrophages, and incubated at 37° C. for 2 hrs with indicated conditions (antibody/drug treatment). For CD47 blockade, anti-CD47 (B6H12, BD Biosciences) or humanized anti-CD47 (Hu5F9-G4; provided by the CD47 disease team at Stanford University) antibodies were used. Cells were then incubated with PE cy7-conjugated anti-mouse F4/80 antibody to stain macrophages. After incubation, cells were washed with FACS buffer and resuspended with FACS buffer containing sytox blue to distinguish dead cells. Phagocytic index was examined by FACS analyses, and macrophages that phagocytosed target cells were F4/80+ and GFP+. Phagocytic index was calculated with the number of F4/80+GFP+ cells/divided by the number of F4/80+ cells. In each experiment, phagocytic indexes were normalized to the maximal indexes.
Alternatively, macrophages and target cells were mixed and cocultured in 24 well plates for 16-24 hrs with indicated conditions. Cells were collected from the plates by TrypLE and incubated with PE cy7-conjugated anti-mouse F4/80 antibody to stain for macrophages. After incubation, cells were washed with FACS buffer and resuspended with FACS buffer containing sytox blue and non-colored standard cells (293T cells were used as standard cells). Cells were then subjected to FACS analyses. Remaining target cells were normalized to standard cells (numbers of standard cells were known and equal in each sample) to evaluate the percentage of cells phagocytosed by macrophages during the incubation.

[2] = tested on: SW620 cells; assay: Phagocytosis assay, human PBMC-derived macrophages with SW620 target cells; type: cell-based; conditions: SW620 Control IgG- or B6H12-treated; FIG. 10D
Procedure: The cells were examined by flow cytometry analyses. Remaining target cells were used to evaluate efficacy of phagocytosis, with less remaining target cells representing stronger phagocytosis. […] Error bars represent standard deviation (FIGS. 10A, 10C and 10D).
Human peripheral blood-derived macrophages were generated as previously described.
Phagocytosis assay. FACS-based phagocytosis assays were performed to evaluate phagocytic abilities of macrophages. […] Target cells were added and mixed with macrophages, and incubated at 37° C. for 2 hrs with indicated conditions (antibody/drug treatment). For CD47 blockade, anti-CD47 (B6H12, BD Biosciences) or humanized anti-CD47 (Hu5F9-G4; provided by the CD47 disease team at Stanford University) antibodies were used. Cells were then incubated with PE cy7-conjugated anti-mouse F4/80 antibody to stain macrophages. After incubation, cells were washed with FACS buffer and resuspended with FACS buffer containing sytox blue to distinguish dead cells. Phagocytic index was examined by FACS analyses, and macrophages that phagocytosed target cells were F4/80+ and GFP+. Phagocytic index was calculated with the number of F4/80+GFP+ cells/divided by the number of F4/80+ cells. In each experiment, phagocytic indexes were normalized to the maximal indexes.

[3] = tested on: calreticulin (CRT); assay: Cell surface exposure of CRT on macrophages (cell surface biotinylation, flow cytometry); type: cell-based, mouse; conditions: for cell surface CRT on macrophages, cell surface biotinylation assay: immunoblots, FIG. 3A; for cell surface exposure of CRT on macrophages, flow cytometry: TLR agonist treatment, FIG. 3B, 10B
Procedure: Flow cytometry Analysis. Flow cytometry analyses were performed using a BD LSRFortessa. For staining, 2.5×10^5-10^6 cells were incubated with indicated antibodies (1:50-1:200) in FACS buffer (PBS with 2% fetal bovine serum) on ice for 30 minutes. Cells were then washed with FACS buffer and subjected to FACS analyses. For staining of macrophages, cells were first treated with Fc receptor blockers or a high concentration of isotype IgG control (5-10 times of indicated antibodies) to block non-specific binding of antibodies caused by the interaction of Fc domain and Fc receptors on macrophages.
Cell surface biotinylation. […] Cells were incubated with NHS-SS-Biotin (0.5 mg/ml) for 1 hr in PBS (pH8.0), and then rinsed with quench buffer (20 mM Tris-HCl, 120 mM NaCl, pH7.4), 100 mM Glycine in PBS, and PBS. Cells were lysed in lysis buffer (20 mM Tris-HCl, pH7.4, 150 mM NaCl, 2 mM EDTA, supplemented with 1% Triton X-100, protease inhibitor cocktail and phosphatase inhibitor cocktail). Cell lysate was incubated with neutravidin agarose resin for 4 hr at 4° C., and the resin was washed using lysis buffer. Biotin-labeled proteins were eluted with lysis buffer containing 2% SDS and 100 mM DTT, and subjected to SDS-PAGE and immunoblotting. Intracellular protein GAPDH was used as a negative control to confirm that only cell surface proteins were labeled by NHS-SS-Biotin.

[4] = tested on: HL60, Raji, PC3, MDA-MB-231 cells; assay: Phagocytosis assay, mouse BMDMs with multiple hematopoietic and solid tumor cells; type: cell-based, human; conditions: macrophages treated with TLR3, 4 and 7 agonists; FIGS. 6A-C and 7A-D
Source text: FIG. 7A-7D. Phagocytosis of HL60, Raji, PC-3, MDA-MB-231 is enhanced by TLR agonists. Phagocytosis assays showing TLR agonists enhanced phagocytosis of multiple human cancer cells, with different hematopoietic (HL60 and Raji) and solid tumor (PC3 and MDA-MB-231) cells (PBS- or Hu5F9-G4-treated) as target cells and BMDMs from NSG (HL60, Raji and PC3) or RAG2^−/−, γc^−/− (MDA-MB-231) mice. HL60: Promyelocytic leukemia; Raji: Burkitt's lymphoma; PC3: Prostate cancer; MDA-MB-231: Breast cancer. Error bars represent standard deviation (FIG. 7A-7D).
as §1

[5] = biological target: T1, Btk (Mus musculus, UniProt P35991); assay: Immunoblot of Btk phosphorylation in macrophages; type: cell-based; conditions: treatment with TLR agonist, FIG. 2B
T1 construct: endogenous in cells; probably mouse bone-marrow-derived macrophages
T1 sequence (P35991 whole entry): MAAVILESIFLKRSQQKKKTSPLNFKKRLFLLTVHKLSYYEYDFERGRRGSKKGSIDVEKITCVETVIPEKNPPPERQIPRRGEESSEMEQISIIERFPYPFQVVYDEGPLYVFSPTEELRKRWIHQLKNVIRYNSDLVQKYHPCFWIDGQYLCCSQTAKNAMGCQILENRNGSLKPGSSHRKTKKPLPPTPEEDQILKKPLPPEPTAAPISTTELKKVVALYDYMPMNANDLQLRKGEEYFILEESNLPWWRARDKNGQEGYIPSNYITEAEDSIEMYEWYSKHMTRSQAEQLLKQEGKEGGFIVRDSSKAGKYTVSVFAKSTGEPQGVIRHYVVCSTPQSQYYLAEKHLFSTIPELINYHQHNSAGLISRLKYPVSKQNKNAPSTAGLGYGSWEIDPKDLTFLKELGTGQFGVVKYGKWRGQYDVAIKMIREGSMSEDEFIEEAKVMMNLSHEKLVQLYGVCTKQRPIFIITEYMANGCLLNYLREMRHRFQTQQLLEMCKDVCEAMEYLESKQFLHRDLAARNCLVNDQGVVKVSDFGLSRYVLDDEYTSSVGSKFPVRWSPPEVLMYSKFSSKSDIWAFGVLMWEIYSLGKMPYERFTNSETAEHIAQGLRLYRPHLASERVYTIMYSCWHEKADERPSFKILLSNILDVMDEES
Source text: FIG. 2A-2D. […] Error bars represent standard deviation (FIGS. 2A, 2C and 2D).

[6] = tested on: calreticulin (CRT); assay: CRT phosphorylation in J774 cells expressing myc-CRT (immunoprecipitation, immunoblot); type: cell-based, mouse; conditions: myc-tagged CRT, FIG. 10E
Procedure: Immunoprecipitation. Calreticulin was immunoprecipitated from J774 cells expressing myc-CRT. J774 cells were plated 12 hrs before immunoprecipitation. Cells were treated with imiquimod (1 ug/ml) at indicated time points, and washed with pre-chilled PBS containing phosphatase inhibitors on ice. Cells were then lysed in lysis buffer (20 mM Tris-HCl, pH7.4, 150 mM NaCl, 2 mM EDTA, supplemented with 1% Triton X-100, protease inhibitor cocktail and phosphatase inhibitor cocktail). Cell lysate was incubated for 1 hr with GammaBind Plus Sepharose for preclearance and 4 hr with anti-myc antibodies at 4° C. GammaBind sepharose was added to cell lysate and incubated for 1 hr at 4° C. Beads were washed with lysis buffer. Proteins were eluted with lysis buffer containing 2% SDS and 100 mM DTT, and subjected to SDS-PAGE and immunoblotting. To detect phosphorylated CRT, the blot was incubated with biotin-labeled pT66 anti-p-Tyrosine antibody and HRP-conjugated streptavidin.

[7] = tested on: PC3 prostate cancer cells; assay: Flow cytometry of dissociated PC3 tumor specimens from treated NSG mice; type: in vivo, mouse; conditions: PC3 tumors in NSG mice; FIG. 8B
Procedure: Tumor engraftment and treatment. PC3 cells (human prostate cancer) were suspended in F-12K medium with 25% matrix matrigel, and injected subcutaneously on the back of 6-10 week NSG mice. Mice were treated with PBS or Hu5F9-G4 antibody by intraperitoneal injection 2 weeks after engraftment, and PBS or TLR agonists (20 μg of Poly (I:C) HMW and 20 μg of LPS) by intratumoral injection 7 weeks after engraftment when tumors reached 100 mm^3.
Tumor dissociation and FACS analyses. Tumor specimens were collected from the mice, minced to pieces smaller than 1 mm in diameter and dissociated in medium 199 with TM enzymes and DNAase at 37° C. until single-cell suspension was achieved. The cells were treated with ACK lysing buffer for lysis of red blood cells, washed twice with HBSS, filtered through 70 μm cell strainer and subjected to flow cytometry analyses. The cells were stained with anti-CD31 antibody, anti-Gr-1 antibody and sytox blue to exclude endothelial cells, neutrophils and dead cells, and with anti-F4/80 antibody for macrophages.

Molecule	cell surface CRT on macrophages, cell surface biotinylation assay [3]	phagocytosis of tumor cells after treatment of macrophages with TLR agonist ([1]; BMDMs from RAG2-/-)	phagocytosis of multiple hematopoietic and solid tumor cells [4]	Btk phosphorylation in macrophages [5]	cell surface exposure of CRT on macrophages, flow cytometry [3]	also measured
C=CC(=O)N1CCC[C@@H](n2nc(-c3ccc(Oc4ccccc4)cc3)c3c(N)ncnc32)C1 [ibrutinib, 1-[(3R)-3-[4-amino-3-(4-phenoxyphenyl)pyrazolo[3,4-d]pyrimidin-1-yl]piperidin-1-yl]prop-2-en-1-one]	decreased	–	–	–	–	basal level phagocytosis of cancer cells (resting macrophages) ([1]; Fc-dependent and -independent, 16 hr coculture, BMDMs from RAG2-/-, γc-/- mice, FIG. 10A): inhibitory effect; phagocytosis induced by TLR agonists, combined with inhibitor ([1]; SW620 (control or CD47KO), BMDMs from RAG2-/-, γc-/- mice, FIG. 2A): significantly attenuated; time to maximal inhibition of phagocytosis on blockade of Btk ([1]; SW620 CD47KO target cells, BMDMs from NSG mice, FIG. 2D): ≤ 1 h; phagocytosis of SW620 cells by human PBMC-derived macrophages [2]: inhibited phagocytosis; imiquimod-induced cell surface expression of CRT on macrophages with ibrutinib ([3]; imiquimod+ibrutinib, flow cytometry, FIG. 10B): reversed
CC(C)Cn1cnc2c(N)nc3ccccc3c21 [imiquimod, Imiquimod]	increased	promoted phagocytosis	dramatically enhanced	stimulated Btk to be phosphorylated	Increased cell surface exposure	duration of Btk-activation for maximal phagocytic ability of macrophages ([1]; SW620 CD47KO target cells, BMDMs from NSG mice, FIG. 2C): 16 h; cell surface exposure of CRT on macrophages, flow cytometry ([3]; listed as Imiquimod): increased cell surface expression; time of treatment to maximal level of CRT phosphorylation [6]: 30 min
lipopolysaccharide [LPS]	–	promoted phagocytosis	dramatically enhanced	stimulated Btk to be phosphorylated	Increased cell surface exposure	phagocytic ability of macrophages ([1]; SW620 (PBS- or Hu5F9-G4-treated), BMDMs from NSG mice, flow cytometry plots, FIG. 6C): strongly enhanced
polyinosinic-polycytidylic acid-high molecular weight [Poly (I:C) HMW]	–	promoted phagocytosis	dramatically enhanced	stimulated Btk to be phosphorylated	Increased cell surface exposure	–
Hu5F9-G4: humanized anti-CD47 antibody provided by the CD47 disease team at Stanford University (antibody, chains of the INN, looked up, V domains shown) VH: QVQLVQSGAEVKKPGASVKVSCKASGYTFTNYNMHWVRQAPGQRLEWMGTIYPGNDDTSYNQKFKDRVTITADTSASTAYMELSSLRSEDTAVYYCARGGYRAMDYWGQGTLVTVSS VL: DIVMTQSPLSLPVTPGEPASISCRSSQSIVYSNGNTYLGWYLQKPGQSPQLLIYKVSNRFSGVPDRFSGSGSGTDFTLKISRVEAEDVGVYYCFQGSHVPYTFGQGTKLEIK	–	–	–	–	–	macrophages (a1+a2) in tumor specimens [7]: 46.26%; macrophages that had phagocytosed tumor cells a2 (GFP+F4/80+), ongoing phagocytosis [7]: 39.3%; tumor cells a4 (GFP+F4/80-) in tumor specimens [7]: 40%
B6H12: anti-CD47 antibody (B6H12, BD Biosciences) (antibody, V domains shown) VH: EVQLVESGGDLVKPGGSLKLSCAASGFTFSGYGMSWVRQTPDKRLEWVATITSGGTYTYYPDSVKGRFTISRDNAKNTLYLQIDSLKSEDTAIYFCARSLAGNAMDYWGQGTSVTVSS VL: DIVMTQSPATLSVTPGDRVSLSCRASQTISDYLHWYQQKSHESPRLLIKFASQSISGIPSRFSGSGSGSDFTLSINSVEPEDVGVYYCQNGHGFPRTFGGGTKLEIK	–	–	–	–	–	phagocytosis of SW620 cells on blockade of CD47 ([1]; BMDMs from RAG2-/-, γc-/- mice, FIG. 1A): induced phagocytosis
